Data taken from PubChem BioAssay AID624374 (Broad Institute, 2012).
Records with an inconclusive call do not appear. Active and inactive are the calls of the source. No rule for the calls is given here.

System: HEK293 viability counterscreen, plate reader
Experiment: HEK293 cell viability, dose response, counter-screen for EBV LMP1 inhibitor project, dry powder, set 2 (AID 624374)
Details: not given
For `C[C@H](CO)N1C[C@H](C)[C@@H](CN(C)Cc2ccc(C(F)(F)F)cc2)Oc2ccc(NC(=O)Cc3ccccc3)cc2CC1=O`, the AC35 was > 35 µM (inactive).
`O=C(C[C@@H]1C[C@@H]2c3cc(NC(=O)c4ccc5c(c4)OCO5)ccc3O[C@@H]2[C@@H](CO)O1)NCc1ccc(Oc2ccccc2)cc1` showed an AC35 of 33.8 µM.
In the case of `Cc1ccc(S(=O)(=O)N(C)C[C@H]2Oc3cc(C#Cc4ccncc4)ccc3S(=O)(=O)N([C@@H](C)CO)C[C@@H]2C)cc1`, the AC35 is reported as > 35 µM (inactive).
In the case of `CC(C)(C)[S@@](=O)N1Cc2cc(C(=O)NCc3ccccc3F)nc(-c3cccc(-c4ccncc4)c3)c2[C@H]1CCO`, the AC35 is reported as > 35 µM (inactive).

System: not listed separately
Experiment: as above
Details: HEK293 viability counterscreen, plate reader; at 30 µM (top of the series)
In the case of `Cc1noc(C)c1S(=O)(=O)Nc1ccc2c(c1)C(=O)N([C@@H](C)CO)C[C@H](C)[C@H](CN(C)Cc1ccc(C(F)(F)F)cc1)OCCCC[C@@H](C)O2`, the activity change, negative = viability loss is reported as 11.8% (inactive).
For `C[C@H](NC(=O)C[C@@H]1C=C[C@H](NC(=O)Cc2ccccn2)[C@H](CO)O1)c1ccccc1`, the activity change, negative = viability loss was 3.96% (inactive).
For `CN(C)C(=O)c1cccc(-c2cccc(-c3nc(C(=O)NCc4ccccc4)cc4c3[C@@H](CCO)N([S@](=O)C(C)(C)C)C4)c2)c1`, the activity change, negative = viability loss was -12.3% (inactive).

Same assay, conditions: HEK293 viability counterscreen, plate reader; at 35 µM (top of the series)
In the case of `O=C(C[C@@H]1CC[C@H]2[C@@H](COC[C@H](O)CN2Cc2ccc(Oc3ccccc3)cc2)O1)N1CCc2ccccc2C1`, the activity change, negative = viability loss is reported as -2.75% (inactive).
In the case of `O=C(C[C@@H]1C[C@H]2c3cc(NC(=O)c4ccc5c(c4)OCO5)ccc3O[C@H]2[C@H](CO)O1)NC1CCCCC1`, the activity change, negative = viability loss is reported as 2.89% (inactive).
With `O=C(C[C@@H]1C[C@@H]2c3cc(NS(=O)(=O)c4ccc(F)cc4)ccc3O[C@@H]2[C@H](CO)O1)NC1CCCCC1` the activity change, negative = viability loss was 6.32% (inactive).
For `C[C@@H]1CN([C@H](C)CO)S(=O)(=O)c2ccc(C#C[C@@H](C)O)cc2O[C@H]1CN(C)Cc1ccc(-c2ccccc2)cc1`, the activity change, negative = viability loss was -18.7% (inactive).
In the case of `C[C@@H](NC(=O)C[C@@H]1C=C[C@@H](NC(=O)Cc2ccccn2)[C@H](CO)O1)c1ccccc1`, the activity change, negative = viability loss is reported as 5.06% (inactive).
In the case of `C[C@H]1CN([C@@H](C)CO)C(=O)c2cc(C#Cc3ccccc3F)cnc2O[C@@H]1CN(C)C(=O)C1CCCCC1`, the activity change, negative = viability loss is reported as 7.95% (inactive).
In the case of `COc1ccccc1C#Cc1ccc2c(c1)O[C@H](CN(C)Cc1cccnc1)[C@H](C)CN([C@@H](C)CO)S2(=O)=O`, the activity change, negative = viability loss is reported as -0.213% (inactive).
In the case of `C[C@@H]1CN([C@H](C)CO)C(=O)Cc2cc(NC(=O)Cc3ccccc3)ccc2O[C@@H]1CN(C)Cc1ccc(C(F)(F)F)cc1`, the activity change, negative = viability loss is reported as 0.279% (inactive).
With `C[C@@H]1CN([C@H](C)CO)C(=O)c2c(c3ccccc3n2C)-c2ccccc2CO[C@H]1CN(C)C(=O)Nc1ccc(F)cc1` the activity change, negative = viability loss was -13% (inactive).
For `C[C@H]1CN([C@@H](C)CO)C(=O)c2c(c3ccccc3n2C)-c2ccccc2CO[C@H]1CN(C)C(=O)Nc1ccc(F)cc1`, the activity change, negative = viability loss was -8.86% (inactive).
With `CC(C)(C)[S@@](=O)N1Cc2cc(C(=O)NCc3ccccn3)nc(-c3cccc(-c4ccccc4F)c3)c2[C@H]1CCO` the activity change, negative = viability loss was 2.2% (inactive).
With `Cc1noc(C)c1S(=O)(=O)Nc1ccc2c(c1)C(=O)N([C@@H](C)CO)C[C@@H](C)[C@@H](CN(C)Cc1ccc(C(F)(F)F)cc1)OCCCC[C@@H](C)O2` the activity change, negative = viability loss was -11.2% (inactive).
In the case of `CC(C)NC(=O)N1[C@H](CO)[C@H](c2ccc(C#CC3CCCCC3)cc2)[C@@H]1C#N`, the activity change, negative = viability loss is reported as -6.23% (inactive).
With `CC(C)NC(=O)N1Cc2cc(C(=O)NC3Cc4ccccc4C3)nc(-c3cccc(-c4cccnc4)c3)c2[C@@H]1CCO` the activity change, negative = viability loss was 22.6% (inactive).
In the case of `Cc1noc(C)c1S(=O)(=O)Nc1ccc2c(c1)C(=O)N([C@@H](C)CO)C[C@H](C)[C@@H](CN(C)Cc1ccc(C(F)(F)F)cc1)OCCCC[C@H](C)O2`, the activity change, negative = viability loss is reported as 4.59% (inactive).
In the case of `N#C[C@H]1N[C@H](CO)[C@H]1c1ccc(C#Cc2ccccc2F)cc1`, the activity change, negative = viability loss is reported as -10.8% (inactive).
In the case of `C[C@H]1CN([C@@H](C)CO)C(=O)c2c(c3ccccc3n2C)-c2ccccc2CO[C@@H]1CN(C)C(=O)Nc1ccc(F)cc1`, the activity change, negative = viability loss is reported as 2.63% (inactive).
With `O=C(C[C@H]1C[C@@H]2c3cc(NC(=O)c4ccc5c(c4)OCO5)ccc3O[C@@H]2[C@@H](CO)O1)NCc1ccc(Oc2ccccc2)cc1` the activity change, negative = viability loss was -3.98% (inactive).
In the case of `CN(C)c1ccc2c(c1)[C@@H]1C[C@@H](CC(=O)NCc3ccc(Oc4ccccc4)cc3)O[C@H](CO)[C@@H]1O2`, the activity change, negative = viability loss is reported as -4.49% (inactive).
In the case of `C[C@@H](NC(=O)C[C@H]1C=C[C@@H](NC(=O)Cc2ccccn2)[C@@H](CO)O1)c1ccccc1`, the activity change, negative = viability loss is reported as 2.73% (inactive).
With `Cc1noc(C)c1S(=O)(=O)Nc1ccc2c(c1)C(=O)N([C@H](C)CO)C[C@@H](C)[C@H](CN(C)Cc1ccc(C(F)(F)F)cc1)OCCCC[C@H](C)O2` the activity change, negative = viability loss was -6.47% (inactive).
With `COc1ccc(S(=O)(=O)N(C)C[C@H]2Oc3ncc(/C=C/c4ccccc4)cc3C(=O)N([C@H](C)CO)C[C@@H]2C)cc1` the activity change, negative = viability loss was 13.6% (inactive).
In the case of `Cc1noc(C)c1S(=O)(=O)Nc1ccc2c(c1)C(=O)N([C@H](C)CO)C[C@@H](C)[C@H](CN(C)Cc1ccc(C(F)(F)F)cc1)OCCCC[C@@H](C)O2`, the activity change, negative = viability loss is reported as -3.71% (inactive).
In the case of `C[C@H](NC(=O)C[C@H]1C[C@@H]2c3cc(NC(=O)c4cccnc4)ccc3O[C@@H]2[C@@H](CO)O1)c1ccccc1`, the activity change, negative = viability loss is reported as -6.5% (inactive).
In the case of `N#C[C@H]1[C@H](c2ccc(C#Cc3ccccc3F)cc2)[C@@H](CO)N1C(=O)c1cccnc1`, the activity change, negative = viability loss is reported as 4.46% (inactive).
With `C[C@H](NC(=O)C[C@H]1C=C[C@@H](NC(=O)Cc2ccccn2)[C@@H](CO)O1)c1ccccc1` the activity change, negative = viability loss was -1.38% (inactive).
For `O=C(C[C@@H]1C[C@@H]2c3cc(NC(=O)c4cccnc4)ccc3O[C@@H]2[C@H](CO)O1)NCC(F)(F)F`, the activity change, negative = viability loss was -0.478% (inactive).
In the case of `O=C(Nc1ccc(C(F)(F)F)cc1)Nc1ccc2c(c1)[C@@H]1C[C@H](CC(=O)N3CCc4ccccc4C3)O[C@H](CO)[C@@H]1O2`, the activity change, negative = viability loss is reported as -11.3% (inactive).
In the case of `COc1ccc(-c2cccc(-c3nc(C(=O)NCC(F)(F)F)cc4c3[C@H](CCO)N([S@@](=O)C(C)(C)C)C4)c2)cc1`, the activity change, negative = viability loss is reported as -10.9% (inactive).
With `COc1ccccc1C#Cc1cnc2c(c1)C(=O)N([C@H](C)CO)C[C@H](C)[C@@H](CN(C)C(=O)c1ccc3c(c1)OCO3)O2` the activity change, negative = viability loss was 7.12% (inactive).
With `C[C@@H](NC(=O)C[C@@H]1C=C[C@H](NC(=O)Cc2ccccn2)[C@@H](CO)O1)c1ccccc1` the activity change, negative = viability loss was -2.91% (inactive).
For `COc1cccc(S(=O)(=O)N(C)C[C@H]2Oc3cc(C4=CCCCC4)ccc3S(=O)(=O)N([C@H](C)CO)C[C@H]2C)c1`, the activity change, negative = viability loss was -4.57% (inactive).
For `O=C(C[C@H]1C[C@H]2c3cc(NC(=O)c4ccc5c(c4)OCO5)ccc3O[C@H]2[C@H](CO)O1)NCc1ccc(Oc2ccccc2)cc1`, the activity change, negative = viability loss was -11.7% (inactive).
In the case of `C[C@H]1CN([C@@H](C)CO)C(=O)Cc2cc(NC(=O)Cc3ccccc3)ccc2O[C@@H]1CN(C)Cc1ccc(C(F)(F)F)cc1`, the activity change, negative = viability loss is reported as 12.4% (inactive).
For `Cc1noc(C)c1S(=O)(=O)Nc1ccc2c(c1)C(=O)N([C@H](C)CO)C[C@@H](C)[C@@H](CN(C)Cc1ccc(C(F)(F)F)cc1)OCCCC[C@@H](C)O2`, the activity change, negative = viability loss was -10.4% (inactive).
For `Cc1noc(C)c1S(=O)(=O)Nc1ccc2c(c1)C(=O)N([C@@H](C)CO)C[C@@H](C)[C@H](CN(C)Cc1ccc(C(F)(F)F)cc1)OCCCC[C@@H](C)O2`, the activity change, negative = viability loss was -0.939% (inactive).
In the case of `Cc1noc(C)c1S(=O)(=O)Nc1ccc2c(c1)C(=O)N([C@H](C)CO)C[C@@H](C)[C@@H](CN(C)Cc1ccc(C(F)(F)F)cc1)OCCCC[C@H](C)O2`, the activity change, negative = viability loss is reported as -1.22% (inactive).
With `COc1ccccc1C#Cc1ccc2c(c1)O[C@H](CN(C)Cc1cccnc1)[C@H](C)CN([C@H](C)CO)S2(=O)=O` the activity change, negative = viability loss was 4.43% (inactive).
For `COc1cccc(S(=O)(=O)N(C)C[C@@H]2Oc3cc(C4=CCCCC4)ccc3S(=O)(=O)N([C@@H](C)CO)C[C@@H]2C)c1`, the activity change, negative = viability loss was -1.39% (inactive).
With `COc1ccccc1C#Cc1ccc([C@H]2[C@H](C#N)N(C(=O)C3CC3)[C@H]2CO)cc1` the activity change, negative = viability loss was 2.46% (inactive).
With `COc1cccc(S(=O)(=O)N(C)C[C@H]2Oc3cc(C4=CCCCC4)ccc3S(=O)(=O)N([C@@H](C)CO)C[C@@H]2C)c1` the activity change, negative = viability loss was 9.06% (inactive).
For `C[C@@H](NC(=O)C[C@H]1C=C[C@@H](NC(=O)Cc2ccccn2)[C@H](CO)O1)c1ccccc1`, the activity change, negative = viability loss was -2.87% (inactive).
In the case of `C[C@@H](NC(=O)C[C@H]1C=C[C@H](NC(=O)Cc2ccccn2)[C@H](CO)O1)c1ccccc1`, the activity change, negative = viability loss is reported as -7.68% (inactive).
In the case of `COc1cccc(S(=O)(=O)N(C)C[C@@H]2Oc3cc(C4=CCCCC4)ccc3S(=O)(=O)N([C@H](C)CO)C[C@H]2C)c1`, the activity change, negative = viability loss is reported as -0.785% (inactive).
For `COc1ccccc1C#Cc1cnc2c(c1)C(=O)N([C@@H](C)CO)C[C@H](C)[C@@H](CN(C)C(=O)c1ccc3c(c1)OCO3)O2`, the activity change, negative = viability loss was 9.4% (inactive).
In the case of `Cc1cc(C(=O)Nc2ccc3c(c2)C(=O)N(C)[C@H]2CC[C@H](CC(=O)NCc4ccc(-c5ccccc5)cc4)O[C@H]2CO3)no1`, the activity change, negative = viability loss is reported as -11.4% (inactive).
For `C[C@@H]1CN([C@H](C)CO)C(=O)c2c(c3ccccc3n2C)-c2ccccc2CO[C@@H]1CN(C)C(=O)Nc1ccc(F)cc1`, the activity change, negative = viability loss was 6.88% (inactive).
In the case of `COc1ccc(S(=O)(=O)N(C)C[C@@H]2Oc3ncc(/C=C/c4ccccc4)cc3C(=O)N([C@@H](C)CO)C[C@H]2C)cc1`, the activity change, negative = viability loss is reported as 5.95% (inactive).
For `CC(C)NC(=O)N1Cc2cc(C(=O)NC3Cc4ccccc4C3)nc(-c3cccc(-c4cccnc4)c3)c2[C@H]1CCO`, the activity change, negative = viability loss was 25.1% (inactive).
For `C/C=C/c1cccc(-c2nc(C(=O)Nc3nccs3)cc3c2[C@@H](CCO)N(C(=O)NC(C)C)C3)c1`, the activity change, negative = viability loss was 4.5% (inactive).
For `O=C(C[C@H]1C[C@@H]2c3cc(NS(=O)(=O)c4ccc(F)cc4)ccc3O[C@@H]2[C@H](CO)O1)NC1CCCCC1`, the activity change, negative = viability loss was 2.73% (inactive).
